Test results as given in US11629139B2 (priority 2017, dated 2023).
Read-outs that look alike come from different tables or passages of the source.

Key:
[1] = system: vesicular stomatitis virus particles (VSV) pseudotyped with EboV Zaire GP; experiment: microbe, parasite or virus in culture; type: cell-based
[2] = pH 7.4
in vitro = details: mouse, microsomes
[3] = plasma
physchem = details: pH 7.4, aqueous buffer, kinetic from dmso stock
[4] = mouse, in vivo
in vivo = details: mouse, po, 25 mg/kg

Nc1ccc(Cl)cc1CN1CCN(C(=O)CNC(=O)CC2CCC(F)(F)CC2)CC1 [Compound 1343, N-(2-(4-(2-Amino-5-chlorobenzyl)piperazin-1-yl)-2-oxoethyl)-2-(4,4-difluorocyclohexyl)acetamide]
IC50 ([1]; Vesicular stomatitis virus): 0.32 µM | Sol [2]: >100 mM | half-life (in vitro; pH 7.4, MLM T½ (min)): 9 min | half-life (in vitro; pH 7.4, T1/2(min)): 8.7 min | Mouse PPB (% bound) [3]: 86.9% | solubility kinetic (physchem): > 100 µM

[2H]C([2H])(c1cc(Cl)ccc1N)N1CCN(C(=O)CNC(=O)C2CC23CCC(F)(F)CC3)CC1 (centres unmarked) [Compound 1413, N-(2-(4-((2-amino-5-chlorophenyl)methyl-d2)piperazin-1-yl)-2-oxoethyl)-6,6-difluorospiro[2.5]octane-1-carboxamide]
IC50 [1]: 0.13 µM | IC50 ([1]; Vesicular stomatitis virus): 0.068 µM | T1/2 (min) (mouse, microsomes, pH 7.4): 13/215 min | half-life (in vitro; pH 7.4, Microsome T1/2): 1.4 to 2 min | half-life (in vitro; pH 7.4, T1/2(min)): 2 min | half-life (in vitro; pH 7.4, T1/2 + ritonavir (min)): 215 min | solubility kinetic (physchem): > 100 µM

CS(=O)(=O)c1ccc(COc2ccc(Cl)cc2CN2CCN(C(=O)CNC(=O)C3CC34CCC(F)(F)CC4)CC2)cc1 (single isomer, unassigned; (-)) [(−)-1476]
C@12 hr [4]: 4.7 µM | Cl_obs [4]: 0.714 L/h/kg | Plasma concentration after 12 hours relative to in vitro IC50 against rVSV EBOV infection in 50% human serum [4]: 50 fold | AUClast ([4]; po, 50 mg/kg): 116.4 µM·h | Cmax ([4]; po, 50 mg/kg): 10.4 µM | T1/2 ([4]; po, 50 mg/kg): 132 min | Tmax ([4]; po, 50 mg/kg): 240 min | Kinetic solubility [2]: 10 µM | MLM, T½ (min) (ritonavir 3 μM) (mouse, microsomes): >120 min | Mouse PPB (% bound) [3]: 97.6%

O=C(CC12CC3(F)CC(F)(CC(F)(C3)C1)C2)NCC(=O)N1CCN(Cc2ccccc2OCc2ccc(Br)cc2)CC1 [Compound 1254]
IC50 ([1]; Vesicular stomatitis virus): 0.2 µM | half-life (in vitro; pH 7.4, MLM T½ (min)): 1 min

Nc1ccc(Cl)cc1CN1CCN(C(=O)CNC(=O)C2CC23CCC(F)(F)CC3)CC1 (centres unmarked) [Compound 1373, N-(2-(4-(2-Amino-5-chlorobenzyl)piperazin-1-yl)-2-oxoethyl)-6,6-difluorospiro[2.5]octane-1-carboxamide]
IC50 ([1]; Vesicular stomatitis virus): 0.1 µM | half-life (in vitro; pH 7.4, T1/2(min)): 1.3 min

Nc1ccc(Cl)cc1CN1CCN(C(=O)CNC(=O)C2CC23CCC(F)(F)CC3)CC1 (single isomer, unassigned; (-)) [(−)-1413]
Cmax ([4]; po, 50 mg/kg): 19.5 µM

CS(=O)(=O)c1ccc(CNc2ccc(Cl)cc2CN2CCN(C(=O)CNC(=O)C3CC34CCC(F)(F)CC4)CC2)cc1 (single isomer, unassigned; (-)) [(−)-1503]
Cmax ([4]; po, 50 mg/kg): 7.4 µM

[2H]C([2H])(c1cc(Cl)ccc1NCc1ccc(S(C)(=O)=O)cc1)N1CCN(C(=O)CNC(=O)C2CC23CCC(F)(F)CC3)CC1 (racemic) [(racemic)-1503]
Concentration required to reduce cell viability by 50% (cell viability): exceeded 10 μM

COC(=O)c1ccc(COc2ccccc2CN2CCN(C(=O)CNC(=O)C3(F)CC3)CC2)cc1 [Compound 1376, Methyl 4-((2-((4-((1-fluorocyclopropane-1-carbonyl)glycyl)piperazin-1-yl)methyl)phenoxy)methyl)benzoate]
IC50 ([1]; Vesicular stomatitis virus): > 2 µM

[2H]C([2H])(c1cc(Cl)ccc1N)N1CCN(C(=O)CNC(=O)CC2CCC(F)(F)CC2)CC1 [Compound 1412, N-(2-(4-((2-amino-5-chlorophenyl)methyl-d2)piperazin-1-yl)-2-oxoethyl)-2-(4,4-difluorocyclohexyl)acetamide]
IC50 [1]: 0.068 µM | IC50 ([1]; Vesicular stomatitis virus): 0.13 µM | C@12 hr [4]: 1.7 µM | Cl_obs [4]: 0.738 L/h/kg | Decrease of the clearance by co-administration of ritonavir ([4]; po): ~4 fold | Increase of the AUC by co-administration of ritonavir ([4]; po): ~4 fold | C@12 hr ([4]; po, 25 mg/kg): 0.2 µM | Cl_obs ([4]; po, 25 mg/kg): 2.94 L/h/kg | Cmax ([4]; po, 25 mg/kg): 7.2 µM | T1/2 ([4]; po, 25 mg/kg): 138 min | Kinetic solubility [2]: 93 µM | Sol [2]: >100 mM | Effect of CYP3A4 inhibition on T1/2 (FIG. 9) (mouse, microsomes): improves | T1/2 (min) (mouse, microsomes, pH 7.4): 1.4/144 min | Increase of stability in mouse liver microsomes by ritonavir (pH 7.4): 10- to 30 fold | half-life (in vitro; pH 7.4, Microsome T1/2): 8.7 to 13 min | half-life (in vitro; pH 7.4, T1/2(min)): 13 min | half-life (in vitro; pH 7.4, T1/2 + ritonavir (min)): 144 min | Cmax (in vivo): 12 µM | solubility kinetic (physchem): > 100 µM

Nc1cc(OCc2ccc(Br)cc2)c(CN2CCN(C(=O)CNC(=O)CC34CC5CC(CC(C5)C3)C4)CC2)cc1Cl [Compound 1252]
IC50 ([1]; Vesicular stomatitis virus): 0.8 µM

O=C(CC12CC3CC(C1)C(C3)C2)NCC(=O)N1CCN(Cc2cc(F)ccc2OCc2ccc3nonc3c2)CC1 [Compound 1444]
IC50 ([1]; Vesicular stomatitis virus): 0.025 µM

O=C(CC12CC3CC(CC(C3)C1)C2)NCC(=O)N1CCN(Cc2cc(OC3CC3)ccc2F)CC1 [Compound 1354, 2-((1R,3R,5S)-Adamantan-1-yl)-N-(2-(4-(5-cyclopropoxy-2-fluorobenzyl)piperazin-1-yl)-2-oxoethyl)acetamide]
IC50 ([1]; Vesicular stomatitis virus): > 2 µM

COC(=O)c1ccc(COc2ccccc2CN2CCN(C(=O)CNC(=O)Cc3ccc(F)cc3)CC2)cc1 [Compound 1312, Methyl 4-((2-((4-((2-(4-fluorophenyl)acetyl)glycyl)piperazin-1-yl)methyl)phenoxy)methyl)benzoate]
IC50 ([1]; Vesicular stomatitis virus): 0.6 µM

O=C(CC1CCC(F)(F)CC1)NCC(=O)N1CCN(Cc2cc(Cl)ccc2F)CC1 [Compound 1367, N-(2-(4-(5-chloro-2-fluorobenzyl)piperazin-1-yl)-2-oxoethyl)-2-(4,4-difluorocyclohexyl)acetamide]
IC50 ([1]; Vesicular stomatitis virus): > 2 µM

NC(=O)c1ccc(Cl)cc1CN1CCN(C(=O)CNC(=O)CC23CC4CC(CC(C4)C2)C3)CC1 [Compound 1804]
IC50 ([1]; Vesicular stomatitis virus): 1.9 µM

COC(=O)c1ccc(COc2ccc(Cl)cc2CN2CCN(C(=O)CNC(=O)CC3(C)CCCCC3)CC2)cc1 [Compound 1334, Methyl 4-((4-chloro-2-((4-((2-(1-methylcyclohexyl)acetyl)glycyl)piperazin-1-yl)methyl)phenoxy)methyl)benzoate]
IC50 ([1]; Vesicular stomatitis virus): 0.019 µM

CS(=O)(=O)c1ccc(Oc2cc(F)cc(CN3CCN(C(=O)CNC(=O)C4CC45CCC(F)(F)CC5)CC3)c2)cc1 (centres unmarked) [Compound 1459]
IC50 ([1]; Vesicular stomatitis virus): 0.2 µM

O=C(CC1CCC(F)(F)CC1)NCC(=O)N1CCN(Cc2cccc(Oc3ccccn3)c2)CC1 [Compound 1451]
IC50 ([1]; Vesicular stomatitis virus): > 5 µM

O=C(CC12CC3CC(CC(C3)C1)C2)NCC(=O)N1CCN(Cc2cc(Cl)ccc2F)CC1 [Compound 1305, 2-((1R,3R,5S)-Adamantan-1-yl)-N-(2-(4-(5-chloro-2-fluorobenzyl)piperazin-1-yl)-2-oxoethyl)acetamide]
IC50 ([1]; Vesicular stomatitis virus): 0.36 µM

Nc1ccc(C2CC2)cc1CN1CCN(C(=O)CNC(=O)C2CC23CCC(F)(F)CC3)CC1 (centres unmarked) [Compound 1397]
IC50 ([1]; Vesicular stomatitis virus): 2.4 to 4.2 µM

CC(=O)Nc1ccc(COc2ccc(F)cc2CN2CCN(C(=O)CNC(=O)CC34CC5CC(C3)C(C5)C4)CC2)cc1 [Compound 1445]
IC50 ([1]; Vesicular stomatitis virus): 0.71 µM

[2H]C([2H])(c1cc(Cl)ccc1NCc1ccc(S(C)(=O)=O)c(F)c1)N1CCN(C(=O)CNC(=O)[C@@H]2CC23CCC(F)(F)CC3)CC1 [Compound 1561]
IC50 ([1]; Vesicular stomatitis virus): 0.008 µM

CC(=O)N1CCC(Oc2cc(F)cc(CN3CCN(C(=O)CNC(=O)C4CC45CCC(F)(F)CC5)CC3)c2)CC1 (centres unmarked) [Compound 1442]
IC50 ([1]; Vesicular stomatitis virus): 0.6 µM

NC(=O)Nc1ccc(Cl)cc1CN1CCN(C(=O)CNC(=O)CC2CCC(F)(F)CC2)CC1 [Compound 1361, N-(2-(4-(5-Chloro-2-ureidobenzyl)piperazin-1-yl)-2-oxoethyl)-2-(4,4-difluorocyclohexyl)acetamide]
IC50 ([1]; Vesicular stomatitis virus): > 2 µM

NC(=O)c1ccc(Br)cc1CN1CCN(C(=O)CNC(=O)CC23CC4CC(CC(C4)C2)C3)CC1 [Compound 1364, 2-((4-((2-((1R,3R,5S)-Adamantan-1-yl)acetyl)glycyl)piperazin-1-yl)methyl)-4-bromobenzamide]
IC50 ([1]; Vesicular stomatitis virus): 1.9 µM

CS(=O)(=O)c1ccc(COc2ccc(Cl)cc2CN2CCN(C(=O)CNC(=O)C3CC34CCC(F)(F)CC4)CC2)cc1 (racemic) [(racemic)-1476]
Concentration required to reduce cell viability by 50% (cell viability): exceeded 10 μM

O=C(CC12CC3CC(CC(C3)C1)C2)NCC(=O)N1CCN(Cc2cc(F)cc(Br)c2)CC1 [Compound 1339, 2-((1R,3R,5S)-Adamantan-1-yl)-N-(2-(4-(3-bromo-5-fluorobenzyl)piperazin-1-yl)-2-oxoethyl)acetamide]
IC50 ([1]; Vesicular stomatitis virus): 1.4 µM

[2H]C([2H])(c1cc(Cl)ccc1NCc1ccc(C(=O)OC)nc1)N1CCN(C(=O)CNC(=O)C2CC23CCC(F)(F)CC3)CC1 (centres unmarked) [Compound 1549, 5-{[4-Chloro-2-(4-{2-[(6,6-difluoro-spiro[2.5]octane-1-carbonyl)-amino]-acetyl}-piperazin-1-yl-di-deutero-methyl)-phenylamino]-methyl}-pyridine-2-carboxylic acid methyl ester]
IC50 ([1]; Vesicular stomatitis virus): 0.05 µM

Nc1ccc(CN2CCN(C(=O)CNC(=O)C3CC34CCC(F)(F)CC4)CC2)cc1Cl (centres unmarked) [Compound 1390, N-(2-(4-(4-Amino-3-chlorobenzyl)piperazin-1-yl)-2-oxoethyl)-6,6-difluorospiro[2.5]octane-1-carboxamide]
IC50 ([1]; Vesicular stomatitis virus): 1.1 µM

COC(=O)c1cccc(-c2ccc(O)c(CN3CCN(C(=O)CNC(=O)CC45CC6CC(CC(C6)C4)C5)CC3)c2)c1 [Compound 1310, Methyl 3′-((4-((2-((1R,3R,5S)-adamantan-1-yl)acetyl)glycyl)piperazin-1-yl)methyl)-4′-hydroxy-[1,1′-biphenyl]-3-carboxylate]
IC50 ([1]; Vesicular stomatitis virus): 0.31 µM

O=C(NCC(=O)N1CCN(Cc2cc(Cl)ccc2NCc2ncco2)CC1)[C@@H]1CC12CCC(F)(F)CC2 [Compound 1585]
IC50 ([1]; Vesicular stomatitis virus): 1.3 µM

[2H]C([2H])(c1cc(Cl)ccc1NCc1cnco1)N1CCN(C(=O)CNC(=O)[C@@H]2CC23CCC(F)(F)CC3)CC1 [Compound 1587]
IC50 ([1]; Vesicular stomatitis virus): 0.13 µM
